Read-outs that look alike come from different tables or passages of the source.

The subject of test [1] is macrophage cell line J774.1. The test is described as follows: Macrophage assay (Alamar Blue cytotoxicity). The format is cell-based. The conditions noted are these: for EC50: J774.1 macrophages, after 48h, read-out: ED50 [µM] Macrophage after 48h. As to the method: The macrophage cell line J774.1 was maintained in complete Click RPMI medium. For the experimental procedures cells were detached from the flasks with a rubber police, washed twice with PBS and suspended at 2 x 10^6 cells mL^-1 in complete Click RPMI medium. […] Following the addition of 20 µl of Alamar Blue, the plates were further incubated at similar conditions. The plates were then read 24 and 48 h later. Control experiments to examine the effect of cell density, incubation time and DMSO concentration were performed. Absorbance in the absence of compounds was set as 100 % of growth control.

The subject of test [2] is T. brucei brucei laboratory strain TC 221. Description: Trypanosome assay (in vitro cytotoxicity, Alamar Blue). In kind it is cell-based, Trypanosoma brucei brucei. The conditions noted are these: for activity against trypanosomes (in words): statement of the discussion. The protocol:
Parasite culture: Trypomastigote forms of T. brucei brucei laboratory strain TC 221 were cultured in Baltz medium according to standard conditions.^36 In vitro cytotoxicity assays: The test compounds were dissolved in DMSO or 0.1 M NaOH. A defined number of parasites (10^4 trypanosomes per mL) were exposed in test chambers of 96-well plates to various concentrations of the test substances in a final volume of 200 µl. Positive (trypanosomes in culture medium) and negative controls (test substance without trypanosomes) were run with each plate. The plates were then incubated at 37°C in an atmosphere of 5 % CO2 for a total time period of 72 h. […] The effect of test substances was quantified in ED50 values by linear interpolation^18 of three different measurements. The activity of the test substances was measured by light absorption in an MR 700 Microplate Reader at a wavelength of 550 nm with a reference wave length of 630 nm, using the Alamar Blue®.

Where [3] appears, read: Trypanosoma brucei, strain TC 221, 10^4 trypanosomes per mL, incubated 72 h, reading at 48 h, Alamar Blue, read-out: ED50 [µM] T. brucei brucei.
The mark [4] stands for this setting: strain TC 221, 10^4 trypanosomes per mL, incubated 72 h, reading at 48 h, Alamar Blue, read-out: ED50 [µM] T. brucei brucei.
The mark [5] stands for this setting: reference substances, for comparison (title of Table 1), read-out: ED50 (T. brucei brucei).

On to `C[C@@H]1[C@H](O)[C@@H](C)/C=C/C=C/C=C/C=C/C=C/C=C/C=C/[C@H](O[C@@H]2O[C@H](C)[C@@H](O)[C@H](N)[C@@H]2O)C[C@@H]2O[C@](O)(C[C@@H](O)C[C@@H](O)[C@H](O)CC[C@@H](O)C[C@@H](O)CC(=O)O[C@H]1C)C[C@H](O)[C@H]2C(=O)O` [Amphotericin B, reference compound], for which the IC50 in test [1] (reference substance, for comparison, read-out: IC50 (J774.1 Macrophages)) stood at 68.6 ± 16.5 µM.
On to `COC(=O)C1C(=O)C(C(=O)OC)[C@H](c2ccccn2)N[C@@H]1c1ccccn1` (stereo partly drawn) [Compound 1, Dimethyl (2R,6S)-4-oxo-2,6-di(pyridin-2-yl)piperidine-3,5-dicarboxylate], for which the EC50 in test [2] (setting [3]) is 28.1 ± 1.52 µM; in test [1] (Mus musculus) it was over 100 µM.
For `C=CCN1[C@H](c2ccccn2)C(C(=O)OC)C(=O)C(C(=O)OC)[C@@H]1c1ccccn1` (stereo partly drawn) [Compound 2, Dimethyl (2R,6S)-1-allyl-4-oxo-2,6-di(pyridin-2-yl)piperidine-3,5-dicarboxylate], the EC50 is 26.5 ± 7.64 µM in test [2] (setting [3]) and over 100 µM in test [1] (Mus musculus).
For `COC(=O)C1C(=O)C(C(=O)OC)[C@H](c2ccccn2)N(CCO)[C@@H]1c1ccccn1` (stereo partly drawn) [Compound 3, Dimethyl (2R,6S)-1-(2-hydroxyethyl)-4-oxo-2,6-di(pyridin-2-yl)piperidine-3,5-dicarboxylate], the EC50 in test [2] (setting [3]) was found to be 22.8 ± 5.57 µM; in test [1] (Mus musculus) it was 31.15 ± 0.14 µM.
As to `COC(=O)C1C(=O)C(C(=O)OC)[C@H](c2ccccn2)N(CC(C)O)[C@@H]1c1ccccn1` (stereo partly drawn) [Compound 4, Dimethyl (2R,6S)-1-(2-hydroxypropyl)-4-oxo-2,6-di(pyridin-2-yl)piperidine-3,5-dicarboxylate], the EC50 was found to be 18.3 ± 2.59 µM in test [2] (setting [3]) and 32 ± 0.63 µM in test [1] (Mus musculus).
In the same order, the values of `COC(=O)C1C(=O)C(C(=O)OC)[C@H](c2ccccn2)N(CCOCCO)[C@@H]1c1ccccn1` (stereo partly drawn) [Compound 5, Dimethyl (2R,6S)-1-[2-(2-hydroxyethoxy)ethyl]-4-oxo-2,6-di(pyridin-2-yl)piperidine-3,5-dicarboxylate] are 24.1 ± 4.27 µM and 38.5 ± 6.17 µM.
For `COC(=O)C1C(=O)C(C(=O)OC)[C@H](c2ccccn2)N(CCCC(=O)O)[C@@H]1c1ccccn1` (stereo partly drawn) [Compound 6, 4-[(2R,6S)-3,5-bis(methoxycarbonyl)-4-oxo-2,6-di(pyridin-2-yl)piperldin-1-yl]butanoic acid], the EC50 in test [2] (setting [4]) is 19.3 ± 2.28 µM; in test [1] it was 46 ± 5.92 µM.
As to `COC(=O)C1C(=O)C(C(=O)OC)[C@H](c2ccccn2)N(CCCCCCCC(=O)O)[C@@H]1c1ccccn1` (stereo partly drawn) [Compound 7, 8-[(2R,6S)-3,5-bis(methoxycarbonyl)-4-oxo-2,6-di(pyridin-2-yl)piperidin-1-yl]octanoic acid], the results for the EC50 in test [2] (setting [3]) and in test [1] (Mus musculus) were 24 ± 4.48 µM and 33.8 ± 2.81 µM, respectively.
For the compound `COC(=O)C1C(=O)C(C(=O)OC)[C@H](c2ccccn2)N(Cc2ccccn2)[C@@H]1c1ccccn1` (stereo partly drawn) [Compound 8, Dimethyl (2R,6S)-4-oxo-2,6-di(pyridine-2-yl)-1-(pyridine-2-yl-methyl)-piperidine-3,5-diearboxylate], the EC50 was 4.62 ± 1.39 µM in test [2] (setting [4]) and 29.9 ± 2.32 µM in test [1].
Consider `COC(=O)C1C(=O)C(C(=O)OC)[C@H](c2ccccn2)N(Cc2ccccc2)[C@@H]1c1ccccn1` (stereo partly drawn) [Compound 9, Dimethyl (2R,6S)-1-benzyl-4-oxo-2,6-di(pyridin-2-yl)piperidine-3,5-dicarboxylate], for which the EC50 is 11.1 ± 1.91 µM in test [2] (setting [3]) and 34 ± 1.56 µM in test [1] (Mus musculus).
In the same order, the values of `C=CCN1[C@@H](c2ccc([N+](=O)[O-])cc2)C(C(=O)OC)=C(O)C(C(=O)OC)[C@@H]1c1ccc([N+](=O)[O-])cc1` (stereo partly drawn) [Compound 10, Dimethyl (2R,6S)-1-allyl-4-hydroxy-2,6-bis(4-nitrophenyl)-1,2,3,6-tetrahydropyridine-3,5-dicarboxylate] are 2.41 ± 0.39 µM and 50.3 ± 11.7 µM.
In the same order, the values of `COC(=O)C1C(=O)C(C(=O)OC)[C@H](c2cccc([N+](=O)[O-])c2)N(Cc2ccc(Cl)cc2)[C@@H]1c1cccc([N+](=O)[O-])c1` (stereo partly drawn) [Compound 14, Dimethyl (2R,6S)-1-(4-chlorobenzyl)-2,6-bis(3-nitrophenyl)-4-oxopiperidine-3,5-dicarboxylate] are 10.6 ± 2.83 µM and 46.6 ± 9.86 µM.
Regarding `COC(=O)C1C(=O)C(C(=O)OC)[C@H](c2cccc([N+](=O)[O-])c2)N(Cc2ccc(OC)cc2)[C@@H]1c1cccc([N+](=O)[O-])c1` (stereo partly drawn) [Compound 15, Dimethyl (2R,6S)-1-(4-methoxybenzyl)-2,6-bis(3-nitrophenyl)-4-oxopiperidine-3,5-dicarboxylate], the EC50 in test [2] (setting [3]) is 3.93 ± 1.1 µM; in test [1] (Mus musculus), over 100 µM.
For the compound `COC(=O)C1C(=O)C(C(=O)OC)[C@H](c2cccc([N+](=O)[O-])c2)N(Cc2ccc(C)cc2)[C@@H]1c1cccc([N+](=O)[O-])c1` (stereo partly drawn) [Compound 16, Dimethyl (2R,6S)-1-(4-methylbenzyl)-2,6-bis(3-nitrophenyl)-4-oxopiperidine 3,5-dicarboxylate], the EC50 was 2.66 ± 0.49 µM in test [2] (setting [3]) and 49.8 ± 16.8 µM in test [1] (Mus musculus).
On to `COC(=O)C1C(=O)C(C(=O)OC)[C@H](c2cccc([N+](=O)[O-])c2)N(Cc2ccccc2)[C@@H]1c1cccc([N+](=O)[O-])c1` (stereo partly drawn) [Compound 17, Dimethyl (2R,6S)-1-benzyl-2,6-bis(3-nitrophenyl)-4-oxopiperidine-3,5-dicarboxylate], for which the values for the EC50 in test [2] (setting [3]) and in test [1] (Mus musculus) were 2.49 ± 0.79 µM and over 100 µM, respectively.
As to `C=CCN1[C@H](c2ccccc2)C(C(=O)OC)C(=O)C(C(=O)OC)[C@@H]1c1ccccc1` (stereo partly drawn) [Compound 18, Dimethyl (2R,6S)-1-allyl-4-oxo-2,6-diphenylpiperidine-3,5-dicarboxylate], the results for the EC50 in test [2] (setting [3]) and in test [1] (Mus musculus) were 4.86 ± 0.63 µM and over 100 µM, respectively.
In the case of `COC(=O)C1=C(O)C[C@@H](c2ccccn2)N(Cc2ccccc2)[C@H]1c1ccccn1` [Compound 19, Methyl (2'R,6'S)-1'-benzyl-4'-hydroxy-1',2',5',6'-tetrahydro-2,2';6',2''-terpyridine-3'-carboxylate], the EC50 in test [2] (setting [3]) is 1.37 ± 0.02 µM; in test [1] (Mus musculus) it was 33.2 ± 0.69 µM.
Consider `COC(=O)C1=C(O)C[C@@H](c2ccccn2)N(Cc2ccc(C)cc2)[C@H]1c1ccccn1` [Compound 20, Methyl (2'R,6'S)-4'-hydroxy-1'-(4-methylbenzyl)-1',2',5',6'-tetrahydro-2,2';6',2''-terpyridine-3'-carboxylate], for which the EC50 in test [2] (setting [3]) was found to be 0.47 ± 0.17 µM; in test [1] (Mus musculus) it was 34.9 ± 0.45 µM.
For the compound `COC(=O)C1=C(O)C[C@@H](c2ccccn2)N(Cc2ccc(OC)cc2)[C@H]1c1ccccn1` [Compound 22, Methyl (2'R,6'S)-4'-hydroxy-1'-(4-methoxybenzyl)-1',2',5',6'-tetrahydro-2,2';6',2''-terpyridine-3'-carboxylate], the EC50 in test [2] (setting [3]) worked out at 0.43 ± 0.17 µM; in test [1] (Mus musculus), 29.9 ± 0.33 µM.
In the case of `COC(=O)C1=C(O)C[C@@H](c2ccccn2)N(Cc2cccc(OC)c2)[C@H]1c1ccccn1` [Compound 23, Methyl (2'R,6'S)-4'-hydroxy-1'-(3-methoxybenzyl)-1',2',5',6'-tetrahydro-2,2';6',2''-terpyridine-3'-carboxylate], the EC50 in test [2] (setting [3]) and in test [1] (Mus musculus) was over 100 µM each time.
In the case of `ON=C1CCN(CCCc2ccccc2)CC1` [Compound 48, 1-(3-Phenylpropyl)-4-piperidine oxime], the “activity against trypanosomes (in words)” value in test [2] was “neither the oximes 48 and 52 nor the oxime ether 49 are active against trypanosomes”.
Consider `CC(CN1CCC(=NOCc2c(Cl)cccc2Cl)CC1)c1ccccc1` (stereo not shown) [Compound 49, 1-(2-Phenylpropyl)-4-oxo-piperidine O-(2,6-dichloro-benzyl)-oxime], for which the EC50 in test [2] (setting [3]) and in test [1] (Mus musculus) was over 100 µM throughout. Besides, the “activity against trypanosomes (in words)” value in test [2] was “neither the oximes 48 and 52 nor the oxime ether 49 are active against trypanosomes”.
In the case of `ON=CC1CCN(CCCc2ccccc2)CC1` [Compound 52, 1-1-(3-Phenyl-propyl)-piperidine-4-carbaldehyde oxime], the “activity against trypanosomes (in words)” value in test [2] was “neither the oximes 48 and 52 nor the oxime ether 49 are active against trypanosomes”. In addition, the EC50 in test [2] (setting [4]) and in test [1] was over 100 µM throughout.
For the compound `NCCCC(N)(C(=O)O)C(F)F` (stereo not shown) [Eflornitine, reference compound], the EC50 in test [2] (setting [5]) turned out to be 22.9 µM.
For `N=C(N)c1ccc(OCCCCCOc2ccc(C(=N)N)cc2)cc1` [Pentamidine diisothionate, reference compound], the EC50 in test [2] (setting [5]) worked out at 0.0027 µM.
For the compound `Cc1ccc(C(=O)Nc2ccc(S(=O)(=O)O)c3cc(S(=O)(=O)O)cc(S(=O)(=O)O)c23)cc1NC(=O)c1cccc(NC(=O)Nc2cccc(C(=O)Nc3cc(C(=O)Nc4ccc(S(=O)(=O)O)c5cc(S(=O)(=O)O)cc(S(=O)(=O)O)c45)ccc3C)c2)c1` [Suramine, reference compound], in test [2] (Trypanosoma brucei, reference substances, for comparison (title of Table 1), read-out: ED50 (T. brucei brucei)), the EC50 stood at 0.3 µM.

Values taken from patent publication EP2036556A1, “Piperidone derivatives and medical uses thereof” (Heinrich-Pette-Institut, priority 2007, dated 2009).
